Reference: US12098148B2, “Therapeutic compounds” (C4X Discovery Limited, priority 2018, dated 2024)

Assays:
[1] = molecular target: human KEAP1 (N-term, residues 321-609) (Homo sapiens, UniProt Q14145); test: biochemical;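 also: fluorescence polarization competition assay of Kelch domain binding to NRF2, 12-point 1:3 dilution series from 10 µM, read after 1 h at room temperature, floor 10 nM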
Method: Biological Assays KEAP1 Kelch Fluorescence Polarization (FP) Assay Method
Inhibition of the Kelch domain-NRF2 interaction was determined using a fluorescence polarization-based competition assay in a black 384-well microplate. Compounds were tested at a starting concentration of 10 μM serially diluted 1:3 to generate a 12-point dose response curve on the Biomek FX robot.
After 1 h at room temperature, fluorescence polarization (excitation 470 nm/emission 530 nm) was measured using an Envision plate reader. IC50 values were determined by fitting the data to a four parameter logistic fit using XLfit or XE Runner within ActivityBase.

[2] = system: NQO1 mRNA in BEAS-2B cells; test: Beas2B NQO1 mRNA cell based assay; parameters: species or system human; settings: Homo sapiens, BEAS-2B, 24 h, 24 h compound treatment, increase in NQO1 mRNA vs vehicle (0.1% DMSO), read-out: EC50
Method in brief: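 Relative NQO1 transcript level derived by ΔΔCT with human β-actin as internal control, using direct-lysate one-step RT-qPCR. Cells were BEAS-2B, plated overnight then treated with compound for 24 h.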

Sequence of human KEAP1 (N-term, residues 321-609) (Q14145 321-609): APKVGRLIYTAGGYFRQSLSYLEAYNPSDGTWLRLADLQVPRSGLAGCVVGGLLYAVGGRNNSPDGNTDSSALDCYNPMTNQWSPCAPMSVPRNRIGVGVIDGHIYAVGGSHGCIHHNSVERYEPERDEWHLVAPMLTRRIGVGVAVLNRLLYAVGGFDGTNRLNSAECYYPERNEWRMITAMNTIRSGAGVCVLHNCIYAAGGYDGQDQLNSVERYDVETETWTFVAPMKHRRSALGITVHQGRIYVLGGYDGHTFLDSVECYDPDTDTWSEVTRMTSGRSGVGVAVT

| Structure (SMILES) | IC50 [1] [nM] | EC50 [2] [nM] |
| --- | --- | --- |
| Cn1cnnc1COc1ccc(Cl)c2c1[C@@H](CN1CC3(CC3)CC1=O)N(C(=O)[C@@H]1CCCC[C@]1(C)C(=O)O)CC2 [Example 175, (1S,2R)-2-((S)-5-chloro-8-((4-methyl-4H-1,2,4-triazol-3-yl)methoxy)-1-((6-oxo-5-azaspiro [2.4]heptan-5-yl)methyl)-1,2,3,4-tetrahydroisoquinoline-2-carbonyl)-1-methylcyclohexane-1-carboxylic acid] | 14 | 35 |
| C[C@]1(C(=O)O)CCCC[C@H]1C(=O)N1CCc2c(Cl)ccc(OCc3nnc4n3CCOC4)c2[C@H]1CN1CC2(CC2)CC1=O [Example 176, (1S,2R)-2-((S)-5-chloro-8-((5,6-dihydro-8H-[1,2,4]triazolo[3,4-c][1,4]oxazin-3-yl)methoxy)-1-((6-oxo-5-azaspiro [2.4]heptan-5-yl)methyl)-1,2,3,4-tetrahydroisoquinoline-2-carbonyl)-1-methylcyclohexane-1-carboxylic acid] | 6.2 | 2.8 |
| Cc1nnc(COc2ccc(Cl)c3c2[C@@H](CN2CC4(CC4)CC2=O)N(C(=O)[C@@H]2CCCC[C@]2(C)C(=O)O)CC3)n1C1CC1 [Example 177, (1S,2R)-2-((S)-5-chloro-8-((4-cyclopropyl-5-methyl-4H-1,2,4-triazol-3-yl)methoxy)-1-((6-oxo-5-azaspiro[2.4]heptan-5-yl)methyl)-1,2,3,4-tetrahydroisoquinoline-2-carbonyl)-1-methylcyclohexane-1-carboxylic acid] | 5.3 | 2.2 |
| Cn1nnc(COc2ccc(F)c3c2[C@@H](CN2CCCC2=O)N(C(=O)[C@@H]2CCCC[C@]2(C)C(=O)O)CC3)c1C(F)(F)F [Example 178, (1S,2R)-2-((S)-5-fluoro-8-((1-methyl-5-(trifluoromethyl)-1H-1,2,3-triazol-4-yl)methoxy)-1-((2-oxopyrrolidin-1-yl)methyl)-1,2,3,4-tetrahydroisoquinoline-2-carbonyl)-1-methylcyclohexane-1-carboxylic acid] | 6.4 | 13 |
| Cc1nnc(COc2ccc(Cl)c3c2[C@@H](CN2CC4(CC4)CC2=O)N(C(=O)[C@@H]2CCCC[C@]2(C)C(=O)O)CC3)n1C [Example 179, (1S,2R)-2-((S)-5-chloro-8-((4,5-dimethyl-4H-1,2,4-triazol-3-yl)methoxy)-1-((6-oxo-5-azaspiro[2.4]heptan-5-yl)methyl)-1,2,3,4-tetrahydroisoquinoline-2-carbonyl)-1-methylcyclohexane-1-carboxylic acid] | 5.3 | 4.1 |
| C[C@]1(C(=O)O)CCC[C@H]1C(=O)N1CCc2c(Cl)ccc(OCc3nnn4c3CCCC4)c2[C@H]1CN1CC2(CC2)CC1=O [Example 180, (1S,2R)-2-((S)-5-chloro-1-((6-oxo-5-azaspiro[2.4]heptan-5-yl)methyl)-8-((4,5,6,7-tetrahydro-[1,2,3]triazolo[1,5-a]pyridin-3-yl)methoxy)-1,2,3,4-tetrahydroisoquinoline-2-carbonyl)-1-methylcyclopentane-1-carboxylic acid] | 7.6 | 1.1 |
| C[C@]1(C(=O)O)CCCC[C@H]1C(=O)N1CCc2c(Cl)ccc(OCc3nnn4c3CCC4)c2[C@H]1CN1CC2(CC2)CC1=O [Example 181, (1S,2R)-2-((S)-5-chloro-8-((5,6-dihydro-4H-pyrrolo[1,2-c][1,2,3]triazol-3-yl)methoxy)-1-((6-oxo-5-azaspiro [2.4]heptan-5-yl)methyl)-1,2,3,4-tetrahydroisoquinoline-2-carbonyl)-1-methylcyclohexane-1-carboxylic acid] | 5.1 | 0.69 |
| C[C@]1(C(=O)O)CCCC[C@H]1C(=O)N1CCc2c(F)ccc(OCc3nnn4c3CCCC4)c2[C@H]1CN1CC2(CC2)CC1=O [Example 182, (1S,2R)-2-((S)-5-fluoro-1-((6-oxo-5-azaspiro[2.4]heptan-5-yl)methyl)-8-((4,5,6,7-tetrahydro-[1,2,3]triazolo[1,5-a]pyridin-3-yl)methoxy)-1,2,3,4-tetrahydroisoquinoline-2-carbonyl)-1-methylcyclohexane-1-carboxylic acid] | 5.1 | 0.83 |
| C[C@]1(C(=O)O)CCCC[C@H]1C(=O)N1CCc2c(Cl)ccc(OCc3nnc4n3CCC4)c2[C@H]1CN1CC2(CC2)CC1=O [Example 183, (1S,2R)-2-((S)-5-chloro-8-((6,7-dihydro-5H-pyrrolo[2,1-c][1,2,4]triazol-3-yl)methoxy)-1-((6-oxo-5-azaspiro [2.4]heptan-5-yl)methyl)-1,2,3,4-tetrahydroisoquinoline-2-carbonyl)-1-methylcyclohexane-1-carboxylic acid] | 5.4 | 5.8 |
| Cn1c(COc2ccc(Cl)c3c2[C@@H](CN2CC4(CC4)CC2=O)N(C(=O)[C@@H]2CCCC[C@]2(C)C(=O)O)CC3)nnc1C1CC1 [Example 184, (1S,2R)-2-((S)-5-chloro-8-((5-cyclopropyl-4-methyl-4H-1,2,4-triazol-3-yl)methoxy)-1-((6-oxo-5-azaspiro[2.4]heptan-5-yl)methyl)-1,2,3,4-tetrahydroisoquinoline-2-carbonyl)-1-methylcyclohexane-1-carboxylic acid] | 2.9 | 5.6 |
| Cn1cnc(COc2ccc(Cl)c3c2[C@@H](CN2CC4(CC4)CC2=O)N(C(=O)[C@@H]2CCCC[C@]2(C)C(=O)O)CC3)c1 [Example 185, (1S,2R)-2-((S)-5-chloro-8-((1-methyl-1H-imidazol-4-yl)methoxy)-1-((6-oxo-5-azaspiro[2.4]heptan-5-yl)methyl)-1,2,3,4-tetrahydroisoquinoline-2-carbonyl)-1-methylcyclohexane-1-carboxylic acid] | 6.2 | 56 |
| C[C@]1(C(=O)O)CCCC[C@H]1C(=O)N1CCc2c(Cl)ccc(OCc3nnc4n3CCCC4)c2[C@H]1CN1CC2(CC2)CC1=O [Example 186, (1S,2R)-2-((S)-5-chloro-1-((6-oxo-5-azaspiro[2.4]heptan-5-yl)methyl)-8-((5,6,7,8-tetrahydro-[1,2,4]triazolo[4,3-a]pyridin-3-yl)methoxy)-1,2,3,4-tetrahydroisoquinoline-2-carbonyl)-1-methylcyclohexane-1-carboxylic acid] | 5.6 | 4.7 |
| C[C@]1(C(=O)O)CCCC[C@H]1C(=O)N1CCc2c(Cl)ccc(O[C@H]3CCN(S(C)(=O)=O)C3)c2[C@H]1CN1CC2(CC2)CC1=O [Example 187, (1S,2R)-2-((S)-5-chloro-8-(((S)-1-(methylsulfonyl)pyrrolidin-3-yl)oxy)-1-((6-oxo-5-azaspiro[2.4]heptan-5-yl)methyl)-1,2,3,4-tetrahydroisoquinoline-2-carbonyl)-1-methylcyclohexane-1-carboxylic acid] | 6 | 43 |
| CC(=O)N1CC[C@H](Oc2ccc(Cl)c3c2[C@@H](CN2CC4(CC4)CC2=O)N(C(=O)[C@@H]2CCCC[C@]2(C)C(=O)O)CC3)C1 [Example 188, (1S,2R)-2-((S)-8-(((S)-1-acetylpyrrolidin-3-yl)oxy)-5-chloro-1-((6-oxo-5-azaspiro [2.4]heptan-5-yl)methyl)-1,2,3,4-tetrahydroisoquinoline-2-carbonyl)-1-methylcyclohexane-1-carboxylic acid] | 4.9 | 7.9 |
| C[C@]1(C(=O)O)CCCC[C@H]1C(=O)N1CCc2c(Cl)ccc(OCc3nnn4c3COCC4)c2[C@H]1CN1CC2(CC2)CC1=O [Example 189, (1S,2R)-2-((S)-5-chloro-8-((6,7-dihydro-4H-[1,2,3]triazolo[5,1-c][1,4]oxazin-3-yl)methoxy)-1-((6-oxo-5-azaspiro[2.4]heptan-5-yl)methyl)-1,2,3,4-tetrahydroisoquinoline-2-carbonyl)-1-methylcyclohexane-1-carboxylic acid] | 5 | 0.27 |
| Cn1nnc(COc2cccc3c2[C@@H](CN2CCCC2=O)N(C(=O)[C@@H]2CCCC[C@]2(C)C(=O)O)CC3)c1C(F)(F)F [Example 190, (1S,2R)-1-methyl-2-((S)-8-((1-methyl-5-(trifluoromethyl)-1H-1,2,3-triazol-4-yl)methoxy)-1-((2-oxopyrrolidin-1-yl)methyl)-1,2,3,4-tetrahydroisoquinoline-2-carbonyl)cyclohexane-1-carboxylic acid] | 5.6 | 8.6 |
| Cn1nnc(COc2ccc(Br)c3c2[C@@H](CN2CCCC2=O)N(C(=O)[C@@H]2CCCC[C@]2(C)C(=O)O)CC3)c1C(F)(F)F [Example 191, (1S,2R)-2-((S)-5-bromo-8-((1-methyl-5-(trifluoromethyl)-1H-1,2,3-triazol-4-yl)methoxy)-1-((2-oxopyrrolidin-1-yl)methyl)-1,2,3,4-tetrahydroisoquinoline-2-carbonyl)-1-methylcyclohexane-1-carboxylic acid] | 5.2 | 2.1 |
| C[C@]1(C(=O)O)CCCC[C@H]1C(=O)N1CCc2c(Cl)ccc(OCc3nnn(C4COC4)c3C(F)F)c2[C@H]1CN1CC2(CC2)CC1=O [Example 192, (1S,2R)-2-((S)-5-chloro-8-((5-(difluoromethyl)-1-(oxetan-3-yl)-1H-1,2,3-triazol-4-yl)methoxy)-1-((6-oxo-5-azaspiro[2.4]heptan-5-yl)methyl)-1,2,3,4-tetrahydroisoquinoline-2-carbonyl)-1-methylcyclohexane-1-carboxylic acid] | 8.5 | 3.8 |
| C[C@@H]1CCC(=O)N1C[C@@H]1c2c(OCc3nnn(C)c3C(F)F)ccc(Cl)c2CCN1C(=O)[C@@H]1CCCC[C@]1(C)C(=O)O [Example 194, (1S,2R)-2-((S)-5-chloro-8-((5-(difluoromethyl)-1-methyl-1H-1,2,3-triazol-4-yl)methoxy)-1-(((R)-2-methyl-5-oxopyrrolidin-1-yl)methyl)-1,2,3,4-tetrahydroisoquinoline-2-carbonyl)-1-methylcyclohexane-1-carboxylic acid] | 7.9 | 12 |
